System: 648629-189-R-J1-PDC spheroids with HUVEC/MSC, viability
Assay: Anticancer human tumor 648629-189-R-J1-PDC patient-derived bladder carcinoma cell line growth inhibition [PI3K]
Conditions: for IC50: curve of first compound; for viability, T/C: stronger effect = lower value
In short: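 High-throughput combination screen: PI3K inhibitors crossed with targeted small molecules on complex spheroids of tumor cells, HUVEC and MSCs at 37 degrees C, 5% CO2. Top concentration was at or near clinical Cmax (otherwise 10 microM), with half-log decrements.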

[1] = second compound 0.0316 µM, first compound 0.000316 µM
[2] = second compound 0.0316 µM, first compound 0.001 µM
[3] = second compound 0.0316 µM, first compound 0.00316 µM
[4] = second compound 0.0316 µM, first compound 0.01 µM
[5] = second compound 0.0316 µM, first compound 0.0316 µM
[6] = second compound 0.0316 µM, first compound 0.1 µM
[7] = second compound 0.1 µM, first compound 0.000316 µM
[8] = second compound 0.1 µM, first compound 0.001 µM
[9] = second compound 0.1 µM, first compound 0.00316 µM
[10] = second compound 0.1 µM, first compound 0.01 µM
[11] = second compound 0.1 µM, first compound 0.0316 µM
[12] = second compound 0.1 µM, first compound 0.1 µM
[13] = second compound 0.316 µM, first compound 0.000316 µM
[14] = second compound 0.316 µM, first compound 0.001 µM
[15] = second compound 0.316 µM, first compound 0.00316 µM
[16] = second compound 0.316 µM, first compound 0.01 µM
[17] = second compound 0.316 µM, first compound 0.0316 µM
[18] = second compound 0.316 µM, first compound 0.1 µM
[19] = second compound 1 µM, first compound 0.000316 µM
[20] = second compound 1 µM, first compound 0.001 µM
[21] = second compound 1 µM, first compound 0.00316 µM
[22] = second compound 1 µM, first compound 0.01 µM
[23] = second compound 1 µM, first compound 0.0316 µM
[24] = second compound 1 µM, first compound 0.1 µM
[25] = second compound 3.16 µM, first compound 0.000316 µM
[26] = second compound 3.16 µM, first compound 0.001 µM
[27] = second compound 3.16 µM, first compound 0.00316 µM
[28] = second compound 3.16 µM, first compound 0.01 µM
[29] = second compound 3.16 µM, first compound 0.0316 µM
[30] = second compound 3.16 µM, first compound 0.1 µM
[31] = second compound 10 µM, first compound 0.000316 µM
[32] = second compound 10 µM, first compound 0.001 µM
[33] = second compound 10 µM, first compound 0.00316 µM
[34] = second compound 10 µM, first compound 0.01 µM
[35] = second compound 10 µM, first compound 0.0316 µM
[36] = second compound 10 µM, first compound 0.1 µM
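Further: spheroids exposed to agents for seven days before reading.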
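Wherever viability, T/C is given: percent of vehicle control luminescence where 100% = DMSO treated spheroids.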

With `Cn1ncnc1[C@H]1c2n[nH]c(=O)c3cc(F)cc(c23)N[C@@H]1c1ccc(F)cc1` + CC(Nc1ncnc2nc[nH]c12)c1cc2cccc(Cl)c2c(=O)n1-c1ccccc1 the IC50 (second compound 0.0316 µM) was > 100 nM, the IC50 (second compound 0.1 µM) was > 100 nM and the IC50 (second compound 0.316 µM) was > 100 nM. The IC50 (second compound 1 µM) was > 100 nM, the IC50 (second compound 3.16 µM) was > 100 nM and the IC50 (second compound 10 µM) was > 100 nM. It also gave a viability, T/C [1] of 99.8%, a viability, T/C [2] of 100% and a viability, T/C [3] of 99.8%. It also gave a viability, T/C [4] of 88.1%, a viability, T/C [5] of 67.2% and a viability, T/C [6] of 71%. For the same compound, the viability, T/C [7] was 97.8%, the viability, T/C [8] was 101% and the viability, T/C [9] was 98.2%. The viability, T/C [10] was 81.2%, the viability, T/C [11] was 93.2% and the viability, T/C [12] was 66.7%. For the same compound, the viability, T/C [13] was 94.2%, the viability, T/C [14] was 98.2% and the viability, T/C [15] was 91.9%. It also gave a viability, T/C [16] of 92%, a viability, T/C [17] of 85.4% and a viability, T/C [18] of 59.1%. For the same compound, the viability, T/C [19] was 111%, the viability, T/C [20] was 100% and the viability, T/C [21] was 97.8%. For the same compound, the viability, T/C [22] was 82.3%, the viability, T/C [23] was 74.4% and the viability, T/C [24] was 65.1%. For the same compound, the viability, T/C [25] was 96.4%, the viability, T/C [26] was 89.6% and the viability, T/C [27] was 88.7%. The viability, T/C [28] was 86.5%, the viability, T/C [29] was 81.6% and the viability, T/C [30] was 58.9%. It also gave a viability, T/C [31] of 90.4%, a viability, T/C [32] of 86.7% and a viability, T/C [33] of 80.7%. It also gave a viability, T/C [34] of 80.7%, a viability, T/C [35] of 71.1% and a viability, T/C [36] of 55.9%.

`CCCS(=O)(=O)Nc1ccc(F)c(C(=O)c2c[nH]c3ncc(-c4ccc(Cl)cc4)cc23)c1F` + COc1c(OCCCN2CCOCC2)ccc2c3n(c(=NC(=O)c4cnc(N)nc4)nc12)CCN3 gave an IC50 (second compound 0.00316 µM) of 5390 nM, an IC50 (second compound 0.01 µM) of 4980 nM and an IC50 (second compound 0.0316 µM) of 4210 nM. The IC50 (second compound 0.1 µM) was 1760 nM, the IC50 (second compound 0.316 µM) was < 31.6 nM and the IC50 (second compound 1 µM) was < 31.6 nM. It also gave a viability, T/C (second compound 0.00316 µM, first compound 0.0316 µM) of 117%, a viability, T/C (second compound 0.00316 µM, first compound 0.1 µM) of 96.9% and a viability, T/C (second compound 0.00316 µM, first compound 0.316 µM) of 92.4%. The viability, T/C (second compound 0.00316 µM, first compound 1 µM) was 100%, the viability, T/C (second compound 0.00316 µM, first compound 3.16 µM) was 92.7% and the viability, T/C (second compound 0.00316 µM, first compound 10 µM) was 0.51%. For the same compound, the viability, T/C (second compound 0.01 µM, first compound 0.0316 µM) was 89.8%, the viability, T/C (second compound 0.01 µM, first compound 0.1 µM) was 87.2% and the viability, T/C (second compound 0.01 µM, first compound 0.316 µM) was 100%. The viability, T/C (second compound 0.01 µM, first compound 1 µM) was 96.4%, the viability, T/C (second compound 0.01 µM, first compound 3.16 µM) was 82.5% and the viability, T/C (second compound 0.01 µM, first compound 10 µM) was 0.3%. The viability, T/C [5] was 85.8%, the viability, T/C [6] was 85.3% and the viability, T/C (second compound 0.0316 µM, first compound 0.316 µM) was 87.8%. It also gave a viability, T/C (second compound 0.0316 µM, first compound 1 µM) of 82.5%, a viability, T/C (second compound 0.0316 µM, first compound 3.16 µM) of 66.4% and a viability, T/C (second compound 0.0316 µM, first compound 10 µM) of 0.81%. For the same compound, the viability, T/C [11] was 55.4%, the viability, T/C [12] was 62.3% and the viability, T/C (second compound 0.1 µM, first compound 0.316 µM) was 54%. The viability, T/C (second compound 0.1 µM, first compound 1 µM) was 60.4%, the viability, T/C (second compound 0.1 µM, first compound 3.16 µM) was 42.1% and the viability, T/C (second compound 0.1 µM, first compound 10 µM) was 1.55%. For the same compound, the viability, T/C [17] was 22.4%, the viability, T/C [18] was 19.5% and the viability, T/C (second compound 0.316 µM, first compound 0.316 µM) was 18.3%. It also gave a viability, T/C (second compound 0.316 µM, first compound 1 µM) of 21.9%, a viability, T/C (second compound 0.316 µM, first compound 3.16 µM) of 16% and a viability, T/C (second compound 0.316 µM, first compound 10 µM) of 2.22%. The viability, T/C [23] was 4.16%, the viability, T/C [24] was 3.42% and the viability, T/C (second compound 1 µM, first compound 0.316 µM) was 3.84%. For the same compound, the viability, T/C (second compound 1 µM, first compound 1 µM) was 3.92%, the viability, T/C (second compound 1 µM, first compound 3.16 µM) was 3.43% and the viability, T/C (second compound 1 µM, first compound 10 µM) was 0.43%.

With `CC(=O)c1c(C)c2cnc(Nc3ccc(N4CCNCC4)cn3)nc2n(C2CCCC2)c1=O` + CC(Nc1ncnc2nc[nH]c12)c1cc2cccc(Cl)c2c(=O)n1-c1ccccc1 the IC50 (second compound 0.0316 µM) was > 100 nM, the IC50 (second compound 0.1 µM) was > 100 nM and the IC50 (second compound 0.316 µM) was > 100 nM. For the same compound, the IC50 (second compound 1 µM) was > 100 nM, the IC50 (second compound 3.16 µM) was > 100 nM and the IC50 (second compound 10 µM) was > 100 nM. For the same compound, the viability, T/C [1] was 102%, the viability, T/C [2] was 104% and the viability, T/C [3] was 101%. For the same compound, the viability, T/C [4] was 92.1%, the viability, T/C [5] was 111% and the viability, T/C [6] was 102%. For the same compound, the viability, T/C [7] was 102%, the viability, T/C [8] was 99.2% and the viability, T/C [9] was 98.5%. It also gave a viability, T/C [10] of 90.9%, a viability, T/C [11] of 117% and a viability, T/C [12] of 116%. It also gave a viability, T/C [13] of 93.1%, a viability, T/C [14] of 103% and a viability, T/C [15] of 107%. For the same compound, the viability, T/C [16] was 107%, the viability, T/C [17] was 111% and the viability, T/C [18] was 97.9%. It also gave a viability, T/C [19] of 100%, a viability, T/C [20] of 97.4% and a viability, T/C [21] of 109%. For the same compound, the viability, T/C [22] was 102%, the viability, T/C [23] was 112% and the viability, T/C [24] was 98.9%. It also gave a viability, T/C [25] of 90.8%, a viability, T/C [26] of 108% and a viability, T/C [27] of 91.9%. The viability, T/C [28] was 113%, the viability, T/C [29] was 101% and the viability, T/C [30] was 107%. For the same compound, the viability, T/C [31] was 90.3%, the viability, T/C [32] was 92.2% and the viability, T/C [33] was 95.3%. For the same compound, the viability, T/C [34] was 88.7%, the viability, T/C [35] was 89.3% and the viability, T/C [36] was 94.3%.

Source: PubChem BioAssay AID1963974 (Molecular Pharmacology Branch, DTP, NCI, 2024)
